The record followed here is patent US11046714B2, “2,2-difluorodioxolo A2A receptor antagonists” (Merck Sharp & Dohme Corp., priority 2013, dated 2021).

This assay addresses human A2A receptor (Homo sapiens (Human), UniProt P29274). As to the kind of experiment: competition binding assay using Scintillation Proximity technology. The settings on record: membranes from CHO-K1 cells expressing the human A2a receptor; 2.0 nM tritiated compound; Cheng-Prusoff. A digest of the protocol: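 Membranes (1.0 μg) from CHO-K1 cells expressing human A2A were treated with adenosine deaminase, then incubated 1 h at room temperature with compound (3000–0.15 nM) and 2.0 nM tritiated SCH-type ligand on WGA SPA beads in PBS plus 10 mM MgCl2. Nonspecific binding was defined with 1 μM CGS 15943. Ki was derived from EC50 via Cheng-Prusoff.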

Chain of human A2A receptor (P29274 whole entry): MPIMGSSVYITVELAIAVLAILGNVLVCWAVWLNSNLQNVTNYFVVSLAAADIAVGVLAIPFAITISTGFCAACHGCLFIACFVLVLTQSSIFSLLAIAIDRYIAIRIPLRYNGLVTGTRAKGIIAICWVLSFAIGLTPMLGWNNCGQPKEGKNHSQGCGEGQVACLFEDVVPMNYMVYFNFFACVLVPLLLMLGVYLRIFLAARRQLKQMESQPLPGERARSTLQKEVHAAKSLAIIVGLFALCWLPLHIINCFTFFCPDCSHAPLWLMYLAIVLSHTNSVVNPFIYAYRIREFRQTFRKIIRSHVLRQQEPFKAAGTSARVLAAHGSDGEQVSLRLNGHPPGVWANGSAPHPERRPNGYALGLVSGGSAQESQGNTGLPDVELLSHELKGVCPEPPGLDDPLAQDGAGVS

In the case of `CC(C)(Cc1nc2c3ccc4c(c3nc(N)n2n1)OC(F)(F)O4)N1CC(F)C1` [Example 101, 2,2-difluoro-8-(2-(3-fluoroazetidin-1-yl)-2-methylpropyl)-[1,3]dioxolo[4,5-h][1,2,4]triazolo[1,5-c]quinazolin-5-amine], affinity was put at a Ki of 31 nM.

Take `Nc1nc2c3c(ccc2c2nc(CCNC4(C(F)(F)F)CCC4)nn12)OC(F)(F)O3` [Example 58, 2,2-difluoro-8-(2-{[1-(trifluoromethyl)cyclobutyl]-amino}ethyl)[1,3]dioxolo[4,5-h][1,2,4]triazolo[1,5-c]quinazolin-5-amine]: the affinity, expressed as Ki, was 1 nM. Turning to `Nc1nc2c3c(ccc2c2nc(CCN4CC(F)(C5CC5)C4)nn12)OC(F)(F)O3` [Example 18, 8-[2-(3-cyclopropyl-3-fluoroazetidin-1-yl)ethyl]-2,2-difluoro[1,3]dioxolo[4,5-h][1,2,4]triazolo[1,5-c]quinazolin-5-amine], affinity was put at a Ki of 1.6 nM. The figure for `CO[C@@H]1CCCN(CCc2nc3c4ccc5c(c4nc(N)n3n2)OC(F)(F)O5)C1` [Example 40, 2,2-difluoro-8-{2-[(3R)-3-methoxypiperidin-1-yl]ethyl}[1,3]dioxolo[4,5-h][1,2,4]triazolo[1,5-c]quinazolin-5-amine] is 13 nM; for `Nc1nc2c3c(ccc2c2nc(CC(C(F)F)N4Cc5cccnc5C4)nn12)OC(F)(F)O3` (single isomer, unassigned) [Example 98, (R or S)-8-(3,3-difluoro-2-(5H-pyrrolo[3,4-b]pyridin-6(7H)-yl)propyl)-2,2-difluoro-[1,3]dioxolo[4,5-h][1,2,4]triazolo[1,5-c]quinazolin-5-amine] it is 6.6 nM. In the case of `CC(Cc1nc2c3ccc4c(c3nc(N)n2n1)OC(F)(F)O4)N1CC(F)(F)C1` (single isomer, unassigned) [Example 93, (R or S)-8-[2-(3,3-difluoroazetidin-1-yl)propyl]-2,2-difluoro[1,3] dioxolo[4,5-h][1,2,4]triazolo[1,5-c] quinazolin-5-amine] it was 4.8 nM; in that of `Nc1nc2c3c(ccc2c2nc(CCN4CCCC(C(F)(F)F)C4)nn12)OC(F)(F)O3` (stereo not shown) [Example 62, 2,2-difluoro-8-{2-[3-(trifluoromethyl)piperidin-1-yl]ethyl}[1,3]dioxolo[4,5-h][1,2,4]triazolo[1,5-c]quinazolin-5-amine], 3.6 nM. Turning to `Nc1nc2c3c(ccc2c2nc(CCN4Cc5cnc(C(F)(F)F)nc5C4)nn12)OC(F)(F)O3` [Example 9, 2,2-difluoro-8-{2-[2-(trifluoromethyl)-5,7-dihydro-6H-pyrrolo[3,4-d]pyrimidin-6-yl]ethyl}[1,3]dioxolo[4,5-h][1,2,4]triazolo[1,5-c]quinazolin-5-amine], the Ki (commonly a dissociation constant, usually derived from enzyme kinetics or from competition with a known ligand) is 3.8 nM. The figure for `Nc1nc2c3c(ccc2c2nc(CCN4CCc5nc(C6CC6)oc5C4)nn12)OC(F)(F)O3` [Example 14, 8-[2-(2-cyclopropyl-6,7-dihydro[1,3]oxazolo[5,4-c]pyridin-5(4H)-yl)ethyl]-2,2-difluoro[1,3]dioxolo[4,5-h][1,2,4]triazolo[1,5-c]quinazolin-5-amine] is 0.9 nM; for `CC(c1nc2c3ccc4c(c3nc(N)n2n1)OC(F)(F)O4)N1CCCC(F)(F)C1` (single isomer, unassigned) [Example 135, 8-[(1S or 1R)-1-(3,3-difluoropiperidin-1-yl)ethyl]-2,2-difluoro[1,3]dioxolo [4,5-h][1,2,4]triazolo[1,5-c] quinazolin-5-amine] it is 89 nM; for `Nc1nc2c3c(ccc2c2nc(CCN4CCCC(O)(C(F)(F)F)C4)nn12)OC(F)(F)O3` (single isomer, unassigned) [Example 71, (R or S)-1-(2-(5-amino-2,2-difluoro-[1,3]dioxolo[4,5-h][1,2,4]triazolo[1,5-c]quinazolin-8-yl)ethyl)-3-(trifluoromethyl)piperidin-3-ol] it is 3.9 nM. With `Cc1ncc(N2CCN(CCc3nc4c5ccc6c(c5nc(N)n4n3)OC(F)(F)O6)[C@H](C)C2)s1` [Example 45, 2,2-difluoro-8-{2-[(2R)-2-methyl-4-(2-methyl-1,3-thiazol-5-yl)piperazin-1-yl]ethyl} [1,3]dioxolo[4,5-h][1,2,4] triazolo[1,5-c]quinazolin-5-amine], the affinity, expressed as Ki, was 1.5 nM. The figure for `CC1(F)CCN(CCc2nc3c4ccc5c(c4nc(N)n3n2)OC(F)(F)O5)CC1` [Example 28, 2,2-difluoro-8-[2-(4-fluoro-4-methylpiperidin-1-yl)ethyl] [1,3]dioxolo[4,5-h][1,2,4] triazolo[1,5-c]quinazolin-5-amine] is 11 nM. In turn, `C[C@@H]1CN(c2nsnc2Cl)CCN1CCc1nc2c3ccc4c(c3nc(N)n2n1)OC(F)(F)O4` [Example 46, 8-{2-[(2R)-4-(4-chloro-1,2,5-thiadiazol-3-yl)-2-methylpiperazin-1-yl]ethyl}-2,2-difluoro[1,3]dioxolo[4,5-h][1,2,4]triazolo[1,5-c]quinazolin-5-amine] gave a Ki of 1.8 nM. Compound `Nc1nc2c3c(ccc2c2nc(CC4CCN(CCC(F)(F)F)C4)nn12)OC(F)(F)O3` (single isomer, unassigned) [Example 155, (R or S)-2,2-difluoro-8-{[1-(3,3,3-trifluoropropyl)pyrrolidin-3-yl]methyl}[1,3]dioxolo[4,5-h][1,2,4]triazolo[1,5-c]quinazolin-5-amine] showed a Ki of 7.2 nM. In the case of `Cc1nc2c(o1)CN(CCc1nc3c4ccc5c(c4nc(N)n3n1)OC(F)(F)O5)CC2` [Example 12, 2,2-difluoro-8-[2-(2-methyl-6,7-dihydro[1,3]oxazolo[5,4-c]pyridin-5(4H)-yl)ethyl][1,3] dioxolo[4,5-h][1,2,4]triazolo [1,5-c]quinazolin-5-amine] it was 1.5 nM. `Nc1nc2c3c(ccc2c2nc(CCN4CCC(F)CC4)nn12)OC(F)(F)O3` [Example 27, 2,2-difluoro-8-[2-(4-fluoropiperidin-1-yl)ethyl] [1,3]dioxolo[4,5-h][1,2,4] triazolo[1,5-c]quinazolin-5-amine] gave a Ki of 7.8 nM. Against the preceding compound, the Ki is about 5.2-fold higher.

The compound `Nc1nc2c3c(ccc2c2nc(C4CCCN(c5cc(F)cc(F)c5)C4)nn12)OC(F)(F)O3` (single isomer, unassigned) [Example 144, (R or S)-8-[1-(3,5-difluorophenyl)piperidin-3-yl]-2,2-difluoro[1,3] dioxolo[4,5-h][1,2,4]triazolo[1,5-c]quinazolin-5-amine] returned a Ki of 1.2 nM. Consider `C[C@H](Cc1nc2c3ccc4c(c3nc(N)n2n1)OC(F)(F)O4)N1CCc2cccnc2C1` [Example 78, 8-[(2R)-2-(5,8-dihydro-1,7-naphthyridin-7(6H)-yl)propyl]-2,2-difluoro[1,3]dioxolo[4,5-h] [1,2,4]triazolo[1,5-c]quinazolin-5-amine], for which the affinity, expressed as Ki, was 1.4 nM. The figure for `Nc1nc2c3c(ccc2c2nc(CN4CCC(F)(F)CC4)nn12)OC(F)(F)O3` [Example 119, 8-[(4,4-difluoropiperidin-1-yl)methyl]-2,2-difluoro[1,3]dioxolo[4,5-h][1,2,4] triazolo[1,5-c]quinazolin-5-amine] is 1.7 nM; for `Nc1nc2c3c(ccc2c2nc(CCNCc4ccc(C(F)(F)F)cc4)nn12)OC(F)(F)O3` [Example 59, 2,2-difluoro-8-(2-{[4-(trifluoromethyl)benzyl]amino}ethyl)[1,3]dioxolo[4,5-h][1,2,4]triazolo[1,5-c]quinazolin-5-amine] it is 6.2 nM; for `Nc1nc2c3c(ccc2c2nc(C4CCCN(c5cncnc5)C4)nn12)OC(F)(F)O3` (single isomer, unassigned) [Example 147, (R or S)-2,2-difluoro-8-(1-pyrimidin-5-ylpiperidin-3-yl)[1,3]dioxolo[4,5-h][1,2,4]triazolo[1,5-c]quinazolin-5-amine] it is 2.9 nM. Regarding `Cc1cc2n(n1)CCN([C@H](C)Cc1nc3c4ccc5c(c4nc(N)n3n1)OC(F)(F)O5)C2` [Example 83, 2,2-difluoro-8-[(2R)-2-(2-methyl-6,7-dihydropyrazolo[1,5-a]pyrazin-5(4H)-yl)propyl][1,3]dioxolo[4,5-h] [1,2,4]triazolo[1,5-c]quinazolin-5-amine], the Ki came to 3.8 nM. The compound `C[C@H](Cc1nc2c3ccc4c(c3nc(N)n2n1)OC(F)(F)O4)N1CCc2cccnc21` [Example 75, 8-[(2R)-2-(2,3-dihydro-1H-pyrrolo [2,3-b]pyridin-1-yl)propyl]-2,2-difluoro[1,3]dioxolo[4,5-h][1,2,4] triazolo[1,5-c]quinazolin-5-amine] had a Ki of 4.2 nM. In the case of `Nc1nc2c3c(ccc2c2nc([C@@H]4CCCN(CC(F)(F)F)C4)nn12)OC(F)(F)O3` [Example 138, (R)-2,2-difluoro-8-(1-(2,2,2-trifluoroethyl)piperidin-3-yl)-[1,3]dioxolo[4,5-h][1,2,4]triazolo[1,5-c]quinazolin-5-amine] it was 1 nM.

`Nc1nc2c3c(ccc2c2nc(C[C@H](N)C4CC4)nn12)OC(F)(F)O3` [Example 158, 8-[(2S)-2-amino-2-cycloproplethyl]-2,2-difluoro[1,3]dioxolo[4,5-h][1,2,4]triazolo[1,5-c]quinazolin-5-amine] gave a Ki of 19 nM.

In the case of `Nc1nc2c3c(ccc2c2nc(CCN4CC(O)(C(F)(F)F)C4)nn12)OC(F)(F)O3` [Example 20, 1-[2-(5-amino-2,2-difluoro [1,3]diozolo[4,5-h][1,2,4]triazolo[1,5-c]quinazolin-8-yl)ethyl]-3-(trifluoromethyl) azetidin-3-ol], the affinity corresponds to a Ki of 12 nM. On to `Nc1nc2c3c(ccc2c2nc([C@@H]4CCCN(CC(F)F)C4)nn12)OC(F)(F)O3` [Example 139, (R)-8-(1-(2,2-difluoroethyl)piperidin-3-yl)-2,2-difluoro-[1,3]dioxolo[4,5-h][1,2,4]triazolo[1,5-c]quinazolin-5-amine], for which the Ki was 1.5 nM.
